Results: US10813951B2, “Method of engineering chemotherapy drug resistant T-cells for immunotherapy” (CELLECTIS, priority 2013, dated 2020)
Read-outs that look alike come from different tables or passages of the source.

Assays:
HPRT KO T cells = assay: 6TG IC50, T cell viability; type: cell-based; conditions: FIG. 27
Description: (§1) Such inactivation confers 6TG resistance that contrasts with the sensitivity of WT T cells to this drug. IC50 can be approximately determined to 10 nM and >100 μM for WT and HPRT KO T cells respectively.

WT T cells [1] = assay: 6TG IC50, T cell viability; type: cell-based; conditions: FIG. 27
Description: as §1

dCK KO T cells = assay: Clofarabine IC50, T cell viability by FACS; type: cell-based; conditions: 48 h, 2 days incubation with clofarabine 0 to 10 μM, FIG. 8, read-out: IC50 (amount of drug to decrease cell viability to 50%)
Description: (§2) FIG. 8 represents the percentage of cell viability of WT and dCK KO T cells (treated with 5 μg or 10 μg of mRNA encoding dCK2 TALE-nuclease pair) cultured for two days in the presence of increasing amount of clofarabine (10 nM to 10 μM). This graph allows to determine the Clofarabine IC50 toward both cell populations;
(§3) To further investigate the ability of T cells to resist to clofarabine, IC50 for this drug was determined on dCK KO and WT T cells. The cells were collected 3 days after transfection were incubated for 2 days in the presence of increasing concentration of clofarabine (0 to 10 μM). At the end of clofarabine incubation, viability of T cells was determined by FACS analysis2.
(§4) The results presented in FIG. 8 show clearly that the processing of dCK gene mediated by TALE-nucleases efficiently inactivates dCK activity in T cells. Such inactivation correlates to clofarabine resistance, contrasting with the sensitivity of WT T cells. The IC50 values (amount of drug to add in the media to decrease cell viability to 50%) correspond respectively to about 100 nM and 10 μM for WT and dCK KO T cells.

WT T cells [2] = assay: Clofarabine IC50, T cell viability by FACS; type: cell-based; conditions: 48 h, 2 days incubation with clofarabine 0 to 10 μM, FIG. 8, read-out: IC50 (amount of drug to decrease cell viability to 50%)
Description: as §2, §3, §4

[3] = test system: CAR T cells negative control; assay: Sensitivity of CAR T cells to clofarabine and fludarabine (cell viability); type: cell-based
Description: (§7) These graphs allows determination of IC50 for both drugs clofarabine and fludarabine;
(§8) T cells were grown with or without clofarabine between D3 and D8 (see workflow 2 in FIG. 9), then they were incubated for 2 days (from D15 to D17) in media with different concentrations of clofarabine. T cells viability was then assessed by FACS analysis using the count bright kit.
(§9) These cells were then used to determined their sensitivity for clofarabine and fludarabine as performed before.

WT Daudi cells = assay: Growth of Daudi cells in media with clofarabine; type: cell-based; conditions: clofarabine 0.1 to 1 μM, FIG. 19
Description: (§5) FIG. 19 represents the growth rate (expressed in ×10^6 cells) for a period of 7 days of KO dCK Daudi cells versus WT Daudi cells in the absence or presence of increasing amounts of clofarabine (0.1 to 1 μM);
(§6) Daudi cells were cultured in media having different concentrations of clofarabine (0; 0.1; 0.25; 0.5 and 1 μM) for several days and counted at each passage.

dCK KO Daudi cells = assay: Growth of Daudi cells in media with clofarabine; type: cell-based; conditions: up to 1 μM clofarabine, FIG. 19
Description: as §5, §6

[4] = clinically relevant dose for ALL treatment, reported by EMA; cited from earlier work
[5] = test system: double KO dCK/TCAR CAR T-cells; assay: Growth rate of double KO CAR T-cells in the presence of clofarabine; type: cell-based; conditions: 11 days, clofarabine 0.1 μM to 10 μM, FIG. 14
Description: This experiment was performed on double KO dCK/TCAR T CAR T-cells (FMC63 which is described in patent application having the filing number PCT/EP2014/059662.) by culturing these cells during 11 days in media having different clofarabine (from 0.1 μM to 10 μM).

dCK/TRAC KO CAR T cells = assay: Sensitivity of CAR T cells to clofarabine and fludarabine (cell viability); type: cell-based
Description: as §7, §8, §9

Structure (SMILES): Nc1nc2nc[nH]c2c(=S)[nH]1 [6TG, 6-thioguanine]
- IC50 (HPRT KO T cells): > 100 µM
- IC50 (WT T cells [1]): ~0.01 µM

Structure (SMILES): Nc1nc(Cl)nc2c1ncn2[C@@H]1O[C@H](CO)[C@@H](O)[C@@H]1F [clofarabine]
- IC50 (dCK KO T cells): ~10 µM
- IC50 (WT T cells [2]): ~0.1 µM
- IC50 ([3]; CAR T cells negative control, FIG. 17, read-out: IC50 clofarabine): 0.0001 µM
- growth of cells in presence of clofarabine (WT Daudi cells): clearly impaired
- growth of cells in presence of clofarabine (dCK KO Daudi cells): able to grow
- Cmax [4]: 1 µM
- cell expansion in presence of clofarabine [5]: correct up to the 1 μM
- IC50 (dCK/TRAC KO CAR T cells; dCK/TRAC KO CAR T cells (FMC63), FIG. 17, read-out: IC50 clofarabine): 0.5 µM

Structure (SMILES): Nc1nc(F)nc2c1ncn2[C@@H]1O[C@H](CO)[C@@H](O)[C@@H]1O [fludarabine]
- IC50 ([3]; T CAR control, FIG. 17, read-out: IC50 fludarabine): 10 µM
- IC50 (dCK/TRAC KO CAR T cells; double KO CAR T cells, FIG. 17, read-out: IC50 fludarabine): 400 µM
